Source: US5204355A, “15-nitro-2β, 3β-dihydro- and 15-nitro-2β,3β,6,7-tetrahydrotabersonine derivatives, pharmaceutical compositions containing them and process for preparing same” (Richter Gedeon Vegyeszeti Gyar RT., priority 1990, dated 1993)

Experiments:
[1] = system: TET-induced increase in the brain water content; experiment: TET-induced cerebral edema in rats (brain water content, protective effect); format: in vivo, inbred male Hannover Wistar rats; conditions: for Brain water content % ± S.E.M. / Protective effect %: 5 days TET 2.5 mg/kg; for protective action against TET-induced edema (in words): result in words
Text: The inhibitory effect on the cerebral edema of the compounds of formula (I) was studied by using the method of P. Linnee et al. "L'oedeme cerebral induit chez 1e rat par le triethyletain. Interet et limites comme methode d'etude de antioedemateux cerebraux", Ann. Pharmaceutiques francaises, 42, 431 (1984)) as described hereinafter in detail.
Inbred male Hannover Wistar rats weighing 180 to 200 g were used in these examinations. Before starting and during the treatment the animals were kept on normal laboratory diet and received tap water ad libitum.
The cerebral edema was induced by the daily administration of 2.5 mg/kg of triethyl-tin chloride (abbreviated hereinafter as TET) for 5 days. TET (Merck-Schuchardt, Darmstadt, Germany) was dissolved in distilled water under stirring and the stirring was continued during the treatment, too. TET was orally administered to the animals every day at 7 o'clock a.m.
Both the reference drugs and test compounds were homogenized in a 0.5 % carboxymethylcellulose solution by using an Ultra Turrax mixer and stirring was continued also during the administration. The first dose of the reference and test compounds, respectively, was orally 5 given following the TET treatment by 1 or 6 hours, respectively. The administration was always carried out in a volume of 0.5 ml/100 g of body-weight. Each group consisted of 7 animals; the control group received only the solvent of TET (distilled water) and the vehicle used for the compounds (0.5% carboxymethylcellulose solution) in an identical volume and at the same time as described above.
The animals were decapitated on the 5th day of the treatment at 2 hours after the last treatment (with the test compound). The whole brain was rapidly removed, washed with cold 0.9 % saline, the moisture was removed by a filter paper, the brains were placed on aluminum foils previously weighed and the wet weights of the brains (together with the aluminum foil of known weight) were determined with an accuracy of one tenth mg on an electric balance (Precisa 80/A, PAG Oerlikon AG, Zurich, Switzerland).
Subsequently the brains were dried at 90° C. for 92 hours, then the gross dry weight (dry weight of the brain together with the weight of the aluminum foil) was again measured. With the knowledge of the dry and wet weights, the brain water content, i.e. the effect of treatment by the compound was calculated and expressed in the percentage of the protective effect by using the following formula: [formula] wherein (TET-Ko) means the percentage of average brain water content of the animals treated with TET and vehicle;
(TET-V) means the percentage of average brain water content of the animals treated with TET and the compound; and
(Veh-Ko) means the percentage of average brain water content of the animals treated with distilled water and vehicle.
The deviations of changes in the brain water content (and dry weight) were analyzed by the means of Student's "t" trial.

Asphyxial anoxia = experiment: Antihypoxic effect on mice (asphyxial anoxia); format: in vivo, male mice (CFLP LATI); conditions: for ED50: Mus musculus, po, 1 hour before, protected = survival 30 % longer than control
Procedure: The antianoxic action of the target compounds was studied by using the following test method.
ANTIHYPOXIC EFFECT ON MICE
Male mice (CFLP LATI) weighing 24 to 26 g were used in these experiments. The test compounds were orally administered in a volume of 10 ml/kg one hour before starting the experiment.
The animals were orally treated with various doses of the test compounds after starving for 16 hours. One hour following the treatment the animals were placed in air-tight glass cylinders of 100 ml volume and the survival time of the animals was measured. Each group consisted of 10 animals. Animals, surviving longer by 30 % than the average survival time of the control group treated with placebo, were considered to be protected. The ED50 value (the dose effective in 50 % of the animals) was calculated from the percentage of surviving animals by using probit analysis.

For `CC[C@]12CCCN3CC[C@@]4(c5cc([N+](=O)[O-])ccc5N[C@H]4[C@@H](C(=O)OC)C1)[C@@H]32` [compound 1704369, methyl 15-nitro-(2β, 5α, 12β, 19α)-aspidospermidine-3α-carboxylate], the “protection against the edema-inducing effect of TET” value ([1]; 100 μmol/kg oral, summary of experiments in text) was 100%, the “Brain water content % ± S.E.M.” value ([1]; Experiment 1, 100 μmol/kg oral) was 78.09 ± 0.09% and the Protective effect % ([1]; Experiment 1, 100 μmol/kg oral) was 103.6%. The “Brain water content % ± S.E.M.” value ([1]; Experiment 2, 100 μmol/kg oral) was 78.15 ± 0.05%, the Protective effect % ([1]; Experiment 2, 100 μmol/kg oral) was 99.3% and the “Brain water content % ± S.E.M.” value ([1]; Experiment 4, 50 μmol/kg oral) was 78.30%. The Protective effect % ([1]; Experiment 4, 50 μmol/kg oral) was 105.9% and the “protective action against TET-induced edema (in words)” value (“protective action” for short) [1] was “even more effective than the structurally similar vincamine”.
In the case of “(5'α, 10α)-9, 10-dihydro-12'-hydroxy- 2'-methylethyl)-5'-benzylergotamine-3+, 6', 18-trione monomethanesulfonate [hydergine]”, the “Brain water content % ± S.E.M.” value ([1]; Experiment 6, 30 mg/kg oral) is reported as 79.97 ± 0.38%, the Protective effect % ([1]; Experiment 6, 30 mg/kg oral) is reported as 25.6% and the “protective action” value [1] is reported as “did not produce any practically useful protective action”.
With `COC1=C(OC)C(=O)C(CCCCCCCCCCO)=C(C)C1=O` [idebenone, 5,6-dimethoxy-2-(10-hydroxydecyl)-3-methyl-p-benzoquinone] the “Brain water content % ± S.E.M.” value ([1]; Experiment 3, 100 μmol/kg oral) was 79.75 ± 0.14%, the Protective effect % ([1]; Experiment 3, 100 μmol/kg oral) was 14.0% and the “Brain water content % ± S.E.M.” value ([1]; Experiment 6, 100 μmol/kg oral) was 80.22 ± 0.16%. The Protective effect % ([1]; Experiment 6, 100 μmol/kg oral) was 16.9% and the “protective action” value [1] was “did not produce any practically useful protective action”.
`CC[C@]12CCCN3CCc4c(n(c5ccccc45)[C@@](O)(C(=O)OC)C1)[C@@H]32` [vincamine, (+) -14β-hydroxy-14α-methoxycarbonyl-14, 15- -dihydroeburnamenine] was tested, and the “Brain water content % ± S.E.M.” value ([1]; Experiment 1, 100 μmol/kg oral) was 78.83 ± 0.15%, the Protective effect % ([1]; Experiment 1, 100 μmol/kg oral) was 64.9% and the “Brain water content % ± S.E.M.” value ([1]; Experiment 2, 100 μmol/kg oral) was 78.70 ± 0.13%. The Protective effect % ([1]; Experiment 2, 100 μmol/kg oral) was 59.6%, the “Brain water content % ± S.E.M.” value ([1]; Experiment 4, 50 μmol/kg oral) was 79.31% and the Protective effect % ([1]; Experiment 4, 50 μmol/kg oral) was 31.6%.
For `CC[C@]12CCCN3CC[C@]4(C(=C(C(=O)OC)C1)Nc1ccc([N+](=O)[O-])cc14)[C@@H]32` [compound 1700374, 15-nitro-6,7-dihydrotabersonine], the ED50 (Asphyxial anoxia) was over 100 mg/kg and the “protection against cerebral hypoxia (in words)” value (Asphyxial anoxia; result in words, up to 100 mg/kg p.o.) was “did not provide any protection”.
With `CC[C@]12C=CCN3CC[C@@]4(c5cc([N+](=O)[O-])ccc5N[C@H]4[C@@H](C(=O)OC)C1)[C@@H]32` [compound 1703594, methyl-15-nitro-6,7-didehydro-(2β, 5α, 12β, 19α)-aspidospermidine-(15-nitro-2β, 3β-dihydrotabersonine)] the “Brain water content % ± S.E.M.” value ([1]; Experiment 4, 50 μmol/kg oral) was 78.61%, the Protective effect % ([1]; Experiment 4, 50 μmol/kg oral) was 82.9% and the ED50 (Asphyxial anoxia) was 56.3 mg/kg.
`CCOC(=O)[C@H]1C[C@]2(CC)CCCN3CC[C@@]4(c5cc([N+](=O)[O-])ccc5N[C@@H]14)[C@@H]32` [compound 1708009, ethyl 15-nitro-(2β, 5α, 12β, 19α)-aspidospermidine-3α-carboxylate] was tested, and the “Brain water content % ± S.E.M.” value ([1]; Experiment 3, 50 μmol/kg oral) was 79.44 ± 0.11%, the Protective effect % ([1]; Experiment 3, 50 μmol/kg oral) was 32.5% and the “protective action” value [1] was “similarly effective”. The ED50 (Asphyxial anoxia) was 62 mg/kg.
With `NC(=O)CN1CCCC1=O` [piracetam, 2-oxo-1-pyrrolidineacetic acid amide] the “Brain water content % ± S.E.M.” value ([1]; Experiment 5, 100 μmol/kg oral) was 80.04 ± 0.28%.
